The term IC50 denotes the concentration that gives 50% inhibition. For orientation: IC90 means the concentration needed for an effect of 90%.

The values below come from US20040176431A1, “Antiproliferative 2-(sulfo-phenyl)-aminothiazole derivatives and pharmaceutical compositions, and methods for their use” (Pfizer, Inc., priority 2003, published 2004).

The target in assay [1] is T1, CDK1 (cdc2)/cyclin B (Homo sapiens, UniProt P06493).
T1 construct: purchased New England Biolabs (Beverly Mass.)
T1 sequence (P06493 whole entry): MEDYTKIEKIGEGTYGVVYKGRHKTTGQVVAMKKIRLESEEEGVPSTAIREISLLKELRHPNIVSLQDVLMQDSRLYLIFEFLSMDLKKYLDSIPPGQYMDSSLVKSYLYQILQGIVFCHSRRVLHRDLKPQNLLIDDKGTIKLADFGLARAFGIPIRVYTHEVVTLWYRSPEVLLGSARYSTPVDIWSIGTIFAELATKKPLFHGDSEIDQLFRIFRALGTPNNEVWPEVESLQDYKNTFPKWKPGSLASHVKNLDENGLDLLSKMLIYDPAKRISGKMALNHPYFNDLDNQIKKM
T1 sequence (P14635 whole entry partner): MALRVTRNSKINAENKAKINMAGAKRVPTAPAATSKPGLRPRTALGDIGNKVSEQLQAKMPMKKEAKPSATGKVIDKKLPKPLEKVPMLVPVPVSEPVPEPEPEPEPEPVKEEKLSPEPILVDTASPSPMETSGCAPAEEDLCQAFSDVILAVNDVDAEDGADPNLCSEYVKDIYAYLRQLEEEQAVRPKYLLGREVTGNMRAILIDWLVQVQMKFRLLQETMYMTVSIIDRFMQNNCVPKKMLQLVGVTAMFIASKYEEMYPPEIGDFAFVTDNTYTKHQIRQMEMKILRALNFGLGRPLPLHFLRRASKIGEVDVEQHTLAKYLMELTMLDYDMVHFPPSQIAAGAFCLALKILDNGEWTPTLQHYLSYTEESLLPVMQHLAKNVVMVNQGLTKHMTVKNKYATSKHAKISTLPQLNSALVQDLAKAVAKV
In words: Inhibition of CDK1(cdc2)/Cyclin B histone H1 kinase activity. Type of assay: biochemical. To be noted: apparent Ki, histone H1 substrate. On the procedure: Cyclin-dependent kinase activity was measured by quantifying the enzyme-catalyzed, time-dependent incorporation of radioactive phosphate from [^32P]ATP or [^33P]ATP into a protein substrate. Unless noted otherwise, assays were performed in 96-well plates in a total volume of 50 μL, in the presence of 10 mM HEPES (N-[2-hydroxyethyl]piperazine-N′-[2-ethanesulfonic acid]) (pH 7.4), 10 mM MgCl2, 25 μM adenosine triphosphate (ATP), 1 mg/mL ovalbumin, 5 μg/mL leupeptin, 1 mM dithiothreitol, 10 mM β-glycerophosphate, 0.1 mM sodium vanadate, 1 mM sodium fluoride, 2.5 mM ethylene glycol-bis(β-aminoethyl ether)-N,N,N′N′-tetraacetic acid (EGTA), 2% (v/v) dimethylsulfoxide, and 0.03-0.4 μCi [^32/33P]ATP per reaction. Reactions were initiated with enzyme, incubated at 30° C., and terminated after 20 minutes by the addition of ethylenediaminetetraacetic acid (EDTA) to 250 mM. The phosphorylated substrate was then captured on a nitrocellulose or phosphocellulose membrane using a 96-well filtration manifold, and unincorporated radioactivity was removed by repeated washing with 0.85% phosphoric acid. Radioactivity was quantified by exposing the dried membranes to a phosphorimager.
Inhibition was measured relative to control wells that contained all reaction components including 2% (v/v) DMSO but no compound, after subtraction of background radioactivity measured in the absence of enzyme. Apparent Ki values of discrete compounds were measured by assaying enzyme activity in the presence of different inhibitor compound concentrations and subtracting the background radioactivity measured in the absence of enzyme. The kinetic parameters (kcat, Km for ATP) were measured for each enzyme under the usual assay conditions by determining the dependence of initial rates on ATP concentration. […]
The complex of human CDK1 (cdc2) and cyclin B was purchased from New England Biolabs (Beverly Mass.). […] Phosphorylated histone substrate was captured by microfiltration on a phosphocellulose P81 membrane and quantified using a phosphorimager as described above.

For assay [2], the target named is T2, CDK2/cyclin A (Homo sapiens, UniProt P24941).
T2 construct: made in house; host or cells: CDK2: insect cells (baculovirus); cyclin A: E. coli, then limited proteolysis
As to the kind of experiment: Inhibition of CDK2/Cyclin A retinoblastoma kinase activity. It counts as biochemical. To be noted: apparent Ki, Rb fragment substrate. Put shortly: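 Radiometric [32/33P]ATP transfer to an Rb fragment by CDK2 (insect cell, 10 or 19 nM) complexed with proteolyzed cyclin A; pH 7.4 HEPES, 25 μM ATP, 2% DMSO, 30 °C, 60 or 75 min, filter capture. Apparent Ki from competitive or tight-binding inhibition fits.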

For assay [3], the target named is T3, CDK4/cyclin D3 (Homo sapiens, UniProt P11802).
T3 construct: made in house; host or cells: insect cells (baculovirus co-infection)
T3 sequence (P11802 whole entry): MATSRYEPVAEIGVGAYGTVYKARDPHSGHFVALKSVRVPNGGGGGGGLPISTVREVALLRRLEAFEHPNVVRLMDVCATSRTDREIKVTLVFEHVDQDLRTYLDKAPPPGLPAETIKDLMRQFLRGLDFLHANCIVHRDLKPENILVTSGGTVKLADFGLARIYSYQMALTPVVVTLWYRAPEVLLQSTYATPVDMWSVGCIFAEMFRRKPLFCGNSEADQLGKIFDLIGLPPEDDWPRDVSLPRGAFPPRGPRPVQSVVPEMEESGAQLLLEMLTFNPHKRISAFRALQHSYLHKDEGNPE
T3 sequence (P30281 1-264 partner limits assumed): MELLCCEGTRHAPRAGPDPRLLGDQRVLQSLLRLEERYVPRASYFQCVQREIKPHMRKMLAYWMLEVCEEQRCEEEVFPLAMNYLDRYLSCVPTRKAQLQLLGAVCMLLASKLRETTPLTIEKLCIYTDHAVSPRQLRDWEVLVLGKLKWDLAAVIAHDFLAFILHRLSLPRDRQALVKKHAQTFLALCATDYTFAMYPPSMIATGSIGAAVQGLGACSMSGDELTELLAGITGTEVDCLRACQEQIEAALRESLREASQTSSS
As to the kind of experiment: Inhibition of CDK4/Cyclin D retinoblastoma kinase activity. It counts as biochemical. To be noted: apparent Ki, Rb fragment substrate. Put shortly:
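Apparent Ki derived by fitting activity at varied inhibitor concentrations to competitive (or competitive tight-binding) inhibition equations, background without enzyme subtracted. Radiometric filter-binding read-out of Rb(386-928) phosphorylation by 5 nM CDK4/cyclin D3(1-264); 25 μM ATP, pH 7.4, 2% DMSO, 30° C., 20 min, extended to 60 min for tight binders.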

Assay [4] has as its system HCT-116 cells. As to the kind of experiment: Inhibition of cell growth (MTT tetrazolium salt assay). To be noted: Homo sapiens; for IC50: read-out: HCT116 IC50; for IC90: read-out: HCT116 IC90. It counts as cell-based. Put shortly: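 HCT-116 cells in McCoy's 5A were pre-incubated 4 h, then exposed to compounds in 0.5% DMSO for 4–6 days at 37 °C. MTT at 0.2 mg/mL final was added for 4 h and DMSO-solubilized formazan read at 540 nm. Values are relative to 0.5% DMSO-only controls.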

`Cc1ccc(CNS(=O)(=O)c2ccc(Nc3nc(N)c(C(=O)c4c(F)cccc4F)s3)cc2)o1` [Example A(11), 4-[4-Amino-5-(2,6-difluoro-benzoyl)-thiazol-2-ylamino]-N-(5-methyl-furan-2-ylmethyl)-benzenesulfonamide]: the Ki in assay [1] is 3.9 nM; in assay [2], under 5 nM; in assay [3], 28 nM. Besides, the IC50 in assay [4] stood at 43 nM. Further, the IC90 in assay [4] was 140 nM.
Regarding `C[S+]([O-])c1ccc(Nc2nc(N)c(C(=O)c3c(Cl)cccc3Cl)s2)cc1` (stereo not drawn) [Z(4), 4-Amino-5-(2,6-dichlorobenzoyl)-2-(4-methanesulfinyl-phenylamino)-thiazole], the Ki in assay [1] was 120 nM; in assay [2], 303 nM; in assay [3] it was 38 nM. In addition, in assay [4], the IC50 turned out to be 4000 nM. Further, the IC90 in assay [4] worked out at 12000 nM.
The corresponding values for `CS(=O)(=O)c1ccc(Nc2nc(N)c(C(=O)c3c(Cl)cccc3Cl)s2)cc1` [AA(2), 4-Amino-5-(2,6-dichlorobenzoyl)-2-(4-methanesulfonyl-phenylamino)-thiazole] are 93 nM, 138 nM, 42 nM, 4500 nM and 18000 nM.
